Assays:
[1] = biological target: T1, rat luteinizing hormone receptor (rLHR) (Rattus norvegicus, UniProt P16235); experiment: Intracellular cAMP in HEK293T cells transiently expressing rLHR, induced by bLH; type: cell-based; conditions: 500 ng/ml bLH, 1 h post-induction, rLHR expressed, vs non-induced cells
T1 construct: Full-length cDNAs encoding the LHRs of rat (r) and bovine (b) origin; expressed in transfected cells; host or cells: HEK293T, transient transfection with pLEN-rLHR
Method: HEK293T cells were transiently transfected for constitutive bLHR or rLHR expression. 48 hours post-transfection the cells were induced by the addition of 500 ng/ml bLH. The intracellular cAMP-levels were determined 1 h post-induction. […] (□) no bLH, (▪) 500 ng/mL bLH.
Full-length cDNAs encoding the LHRs of rat (r) and bovine (b) origin were cloned under control of the strong constitutive human cytomegalovirus promoter (PCMV) as previously described [Kawate N, Tamada H, Inaba T, Sawada T, Journal of Reproduction and Development 2002; 48:8; Ulaner G A, Chuang J, Lin W, Woodbury D, Myers R V, Moyle W R, J Endocrinol 1999; 163:289-97]. The expression vectors were transiently transfected into HEK293T cells. The functionality of the expressed LHRs was determined 48 hours post-transfection by assaying the intracellular cAMP increase in response to the presence of bLH (FIG. 7). […] However, when the rLHR was expressed the detected cAMP-level increased to 29-fold level of the non-induced cells. […]
The intracellular cAMP production of cells was quantified using the cAMP Fluorescence Polarization (FP) Biotrak Immunoassay System (GE Healthcare Bio-Sciences GmbH, Otelfingen, Switzerland, Cat No. RPN3595) according to the manufacturer's protocol. The expression of firefly luciferase was determined with the Tropix Luciferase Assay Kit (Applied Biosystems, Bedford, USA, Cat No. BC100L). […]

[2] = biological target: rLHR (Rattus norvegicus, UniProt P16235); experiment: PCRE dependent SEAP expression over time in HEK293T expressing rLHR or bLHR; type: cell-based; set-up: Full-length cDNAs encoding the LHRs of rat (r) and bovine (b) origin; expressed in transfected cells; host or cells: HEK293T, transient transfection with pLEN-rLHR; conditions: 500 ng/mL bLH, maximal SEAP expression
Method: HEK293T cells were transiently co-transfected for PCRE dependent SEAP expression and constitutive bLHR- or rLHR expression or with the empty vector pcDNA3.1(+). 24 hours post-transfection the cells were induced by addition of 500 ng/mL bLH or cultivated non-induced. […] (▴) rLHR+bLH; (▪) bLHR+bLH; (×) rLHR-bLH; (♦) bLHR-bLH;
Functional expression of LHRs on the cell surface results in the stimulation of PKA and an increase of intracellular cAMP in response to bLH. It was evaluated whether the activated LHR-signaling may induce a PKA-responsive promoter. […] 24 hours post-transfection the cells were induced by bLH and the SEAP expression was determined over time. […] In comparing rLHR- and bLHR-expressing cells a 3-fold increase in maximal SEAP expression in response to bLH of the rLHR over the bLHR was detected. […]
The intracellular cAMP production of cells was quantified using the cAMP Fluorescence Polarization (FP) Biotrak Immunoassay System (GE Healthcare Bio-Sciences GmbH, Otelfingen, Switzerland, Cat No. RPN3595) according to the manufacturer's protocol. The expression of firefly luciferase was determined with the Tropix Luciferase Assay Kit (Applied Biosystems, Bedford, USA, Cat No. BC100L). […] Enhanced YFP-expression was detected by fluorescence microscopy (Leica Microsystems, Wetzlar, Germany)

T1 sequence (P16235 27-700): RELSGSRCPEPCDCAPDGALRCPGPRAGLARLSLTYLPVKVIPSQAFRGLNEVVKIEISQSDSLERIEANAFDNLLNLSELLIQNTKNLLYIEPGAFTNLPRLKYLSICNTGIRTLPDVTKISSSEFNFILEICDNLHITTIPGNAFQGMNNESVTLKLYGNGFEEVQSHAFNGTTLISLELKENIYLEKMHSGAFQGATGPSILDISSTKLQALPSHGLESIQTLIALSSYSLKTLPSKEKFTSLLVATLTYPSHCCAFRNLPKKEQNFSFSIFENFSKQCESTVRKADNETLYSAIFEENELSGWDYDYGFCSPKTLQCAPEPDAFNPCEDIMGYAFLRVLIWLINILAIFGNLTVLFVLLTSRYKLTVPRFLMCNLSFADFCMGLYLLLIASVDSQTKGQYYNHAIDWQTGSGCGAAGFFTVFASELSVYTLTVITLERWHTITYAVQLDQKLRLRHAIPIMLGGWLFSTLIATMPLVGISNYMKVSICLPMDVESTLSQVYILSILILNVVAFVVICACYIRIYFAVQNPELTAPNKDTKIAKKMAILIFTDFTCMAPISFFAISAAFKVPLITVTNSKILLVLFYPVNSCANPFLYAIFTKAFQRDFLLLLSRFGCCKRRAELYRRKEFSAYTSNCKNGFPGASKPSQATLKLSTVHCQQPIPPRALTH
Sequence of rLHR (P16235 27-700): as above

increase in intracellular cAMP [1]: 29 fold | SEAP production of rLHR-expressing cells relative to bLHR-expressing cells [2]: 3 fold
Substance: bovine luteinizing hormone [bLH]

From US8506950B2, “Degradable microcapsules” (ETH Zurich, priority 2008, dated 2013)
